Source: PubChem BioAssay (NCI)
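Each compound was tested at five concentrations against cells in 96-well plates for 48 hours. The concentration for 50% growth inhibition is given as GI50. TGI is the concentration that stops growth completely.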

Columns and labels:
Experiment in all cases: inhibition of tumour cell growth, NCI panel, 48 h
IGROV1 ovarian = tested on: IGROV1 ovarian
OVCAR-3 ovarian = tested on: OVCAR-3 ovarian
HCT-116 colon = tested on: HCT-116 colon
U251 CNS = tested on: U251 CNS
786-0 renal = tested on: 786-0 renal
EKVX NSCLC = tested on: EKVX NSCLC
MCF7 breast = tested on: MCF7 breast
A549 NSCLC = tested on: A549 NSCLC
SF-539 CNS = tested on: SF-539 CNS
SF-295 CNS = tested on: SF-295 CNS
MALME-3M melanoma = tested on: MALME-3M melanoma
SF-268 CNS = tested on: SF-268 CNS
HT29 colon = tested on: HT29 colon
UACC-62 melanoma = tested on: UACC-62 melanoma
HOP-62 NSCLC = tested on: HOP-62 NSCLC
MDA-MB-231 breast = tested on: MDA-MB-231 breast
HS 578T breast = tested on: HS 578T breast
TK-10 renal = tested on: TK-10 renal
SN12C renal = tested on: SN12C renal
MOLT-4 leukemia = tested on: MOLT-4 leukemia
SK-OV-3 ovarian = tested on: SK-OV-3 ovarian
SK-MEL-28 melanoma = tested on: SK-MEL-28 melanoma
M14 melanoma = tested on: M14 melanoma
SNB-19 CNS = tested on: SNB-19 CNS
HCC-2998 colon = tested on: HCC-2998 colon
K-562 leukemia = tested on: K-562 leukemia
NCI-H23 lung = tested on: NCI-H23 lung
DU-145 prostate = tested on: DU-145 prostate
RPMI-8226 leukemia = tested on: RPMI-8226 leukemia

Which results are given for `Cc1c(NC(=O)c2cc(C(N)=O)nc3cc(F)ccc23)c(C(F)(F)F)nn1Cc1ccc(C#N)cc1`?
GI50 (IGROV1 ovarian): 2.02 µM; TGI (IGROV1 ovarian): > 80.7 µM; GI50 (OVCAR-3 ovarian): 2.4 µM; TGI (OVCAR-3 ovarian): > 64.5 µM; GI50 (HCT-116 colon): 2.84 µM; TGI (HCT-116 colon): > 100 µM; GI50 (U251 CNS): 1.67 µM; TGI (U251 CNS): 18.9 µM; GI50 (786-0 renal): 3.77 µM; TGI (786-0 renal): > 100 µM; GI50 (EKVX NSCLC): 21.9 µM; TGI (EKVX NSCLC): > 100 µM; GI50 (MCF7 breast): 0.276 µM; TGI (MCF7 breast): 17.7 µM; GI50 (A549 NSCLC): 16.6 µM; TGI (A549 NSCLC): > 100 µM; GI50 (SF-539 CNS): 14.3 µM; TGI (SF-539 CNS): 49.6 µM; GI50 (SF-295 CNS): 10.4 µM; TGI (SF-295 CNS): 54.9 µM; GI50 (MALME-3M melanoma): 14.4 µM; TGI (MALME-3M melanoma): 74.5 µM; GI50 (SF-268 CNS): 14.3 µM; TGI (SF-268 CNS): > 69.3 µM; GI50 (HT29 colon): 0.219 µM; TGI (HT29 colon): 1.91 µM; GI50 (UACC-62 melanoma): 6.35 µM; TGI (UACC-62 melanoma): > 100 µM; GI50 (HOP-62 NSCLC): 13.6 µM; TGI (HOP-62 NSCLC): > 87.3 µM; GI50 (MDA-MB-231 breast): 17.8 µM; TGI (MDA-MB-231 breast): > 100 µM; GI50 (HS 578T breast): 0.0592 µM; TGI (HS 578T breast): 8.46 µM; GI50 (TK-10 renal): 3.2 µM; TGI (TK-10 renal): > 53.6 µM; GI50 (SN12C renal): 1.59 µM; TGI (SN12C renal): > 72 µM; GI50 (MOLT-4 leukemia): 1.7 µM; TGI (MOLT-4 leukemia): > 100 µM; GI50 (SK-OV-3 ovarian): 2.76 µM; TGI (SK-OV-3 ovarian): 21.4 µM; GI50 (SK-MEL-28 melanoma): 37.4 µM; TGI (SK-MEL-28 melanoma): > 100 µM; GI50 (M14 melanoma): 58.8 µM; TGI (M14 melanoma): > 100 µM; GI50 (SNB-19 CNS): 3.44 µM; TGI (SNB-19 CNS): 30 µM; GI50 (HCC-2998 colon): 5.16 µM; TGI (HCC-2998 colon): > 100 µM; GI50 (K-562 leukemia): 13.1 µM; TGI (K-562 leukemia): > 100 µM; GI50 (NCI-H23 lung): 22.2 µM; TGI (NCI-H23 lung): > 100 µM; GI50 (DU-145 prostate): 1.1 µM; TGI (DU-145 prostate): > 56.4 µM; GI50 (RPMI-8226 leukemia): 0.0101 µM; TGI (RPMI-8226 leukemia): 3.67 µM
